Where two headings read alike, the source gives them in different places.
Legend:
[1] = tested on: Scopolamine Induced Memory Deficit; assay: Dark Avoidance Assay (reversal of scopolamine induced memory deficit); type: in vivo; conditions: mice, s.c., retest after 24 hours
Procedure: In this assay mice are tested for their ability to remember an unpleasant stimulus for a period of 24 hours. A mouse is placed in a chamber that contains a dark compartment; a strong incandescent light drives it to the dark compartment, where an electric shock is administered through metal plates on the floor. The animal is removed from the testing apparatus and tested again, 24 hours later, for the ability to remember the electric shock.
If scopolamine, an anticholinergic that is known to cause memory impairment, is administered before an animal's initial exposure to the test chamber, the animal re-enters the dark compartment shortly after being placed in the test chamber 24 hours later. This effect of scopolamine is blocked by an active test compound, resulting in a greater interval before re-entry into the dark compartment.
The results for an active compound are expressed as the percent of a group of animals in which the effect of scopolamine is blocked, as manifested by an increased interval between being placed in the test chamber and re-entering the dark compartment.

Brain AChE = biological target: T1, Brain AChE (Rattus norvegicus, UniProt P37136); assay: In vitro inhibition of acetylcholinesterase activity in rat striatum (modified Ellman method); type: biochemical
T1 construct: corpora striata dissected free, weighed and homogenized in 19 volumes; from tissue; host or cells: rat corpora striata homogenate (male Wistar rats)
T1 sequence (P37136 32-614): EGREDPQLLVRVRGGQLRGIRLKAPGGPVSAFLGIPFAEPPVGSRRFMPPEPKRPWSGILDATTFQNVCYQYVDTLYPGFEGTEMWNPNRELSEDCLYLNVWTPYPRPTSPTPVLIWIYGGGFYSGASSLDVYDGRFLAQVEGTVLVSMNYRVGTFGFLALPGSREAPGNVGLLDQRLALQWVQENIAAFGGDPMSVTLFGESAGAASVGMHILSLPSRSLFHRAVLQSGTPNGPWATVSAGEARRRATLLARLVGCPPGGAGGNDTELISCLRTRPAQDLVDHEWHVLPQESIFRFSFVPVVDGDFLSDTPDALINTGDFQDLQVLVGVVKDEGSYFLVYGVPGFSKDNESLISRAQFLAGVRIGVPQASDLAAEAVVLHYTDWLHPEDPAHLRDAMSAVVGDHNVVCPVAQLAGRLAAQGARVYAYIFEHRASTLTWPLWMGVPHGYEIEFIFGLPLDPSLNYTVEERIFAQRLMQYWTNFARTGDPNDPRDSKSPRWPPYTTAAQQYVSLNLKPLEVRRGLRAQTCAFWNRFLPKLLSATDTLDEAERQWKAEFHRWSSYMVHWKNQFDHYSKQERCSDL
Excerpt: Cholinesterases are found throughout the body, both in the brain and in serum. However, only brain acetylcholinesterase (AChE) distribution is correlated with central cholinergic innervation. […] We have determined in vitro inhibition of acetylcholinesterase activity in rat striatum according to the method described below.
In Vitro Inhibition of Acetylcholinesterase Activity in Rat Striatum
The method described below was used in this invention for assaying anticholinesterase activity. This is a modification of the method of Ellman et al., Biochem. Pharmacol. 7, 88 (1961).
• 1. 0.05 M Phosphate buffer, pH 7.2 • (a) 6.85 g NaH2PO4·H2O/100 ml distilled H2O • (b) 13.40 g Na2HPO4·7H2O/100 ml distilled H2O • (c) add (a) to (b) until pH reaches 7.2 • (d) Dilute 1:10 • 2. Substrate in buffer • (a) 198 mg acetylthiocholine chloride (10 mM) • (b) q.s. to 100 ml with 0.05 M NaPO4, pH 7.2 (reagent 1) • 3. DTNB in buffer • (a) 19.8 mg 5,5-dithiobisnitrobenzoic acid (DTNB) (0.5 mM) • (b) q.s. to 100 ml with 0.05M NaPO4, pH 7.2 (reagent 1) • 4. A 2mM stock solution of the test drug is made up in a suitable solvent and q.s. to volume with 0.5 mM DTNB (reagent 3). Drugs are serially diluted (1:10) such that the final concentration (in cuvette) is 10^-4M and screened for activity. If active, IC50 values are determined from the inhibitory activity of subsequent concentrations.
Male Wistar rats are decapitated, brains rapidly removed, corpora striata dissected free, weighed and homogenized in 19 volumes (approximately 7 mg protein/ml) of 0.05 M phosphate buffer, pH 7.2 using a Potter-Elvehjem homogenizer. A 25 microliter aliquot of the homogenate is added to 1 ml of vehicle or various concentrations of the test drug and preincubated for 10 minutes at 37°C.
Enzyme activity is measured with the Beckman DU-50 spectrophotometer. This method can be used for IC50 determinations and for measuring kinetic constants.
Kinetics Soft-Pac Module #598273 (10) Program #6 Kindata: Source - Vis Wavelength - 412 nm Sipper - none Cuvettes - 2 ml cuvettes using auto 6-sampler Blank - 1 for each substrate concentration Interval time - 15 seconds (15 or 30 seconds for kinetics) Total time - 5 minutes (5 or 10 minutes for kinetics) Plot - yes Span - autoscale Slope - increasing Results - yes (gives slope) Factor - 1 […]
Blank values are determined for each run to control non enzymatic hydrolysis of substrate and these values are automatically substracted by the kindata program available on kinetics soft-pac module. This program also calculates the rate of absorbance change for each cuvette. […]
IC50 values are calculated from log-probit analysis.

[2] = rat striatum homogenate, preincubated 10 minutes at 37°C, 5 mM acetylthiocholine, pH 7.2, read-out: Inhibitory Concentration (IC50) Brain AChE

SMILES: Nc1c2c(nc3ccccc13)CCCC2 [Tacrine, reference compound]
- % of Animals with Scopolamine Induced Memory Deficit Reversal ([1]; dose 0.63 mg/kg of body weight): 13%

SMILES: CCCCOC(=O)C(=O)c1ccc2c(c1)C1(C)CCN(C)C1N2C (stereo not drawn) [1,2,3,3a,8,8a-Hexahydro-α-oxo-1,3a,8-trimethyl-5-pyrrolo[2,3-b]indole acetic acid, n-butyl ester]
- IC50 (Brain AChE; [2]): 5.7 µM

SMILES: CN1CCC2(C)c3cc(C(=O)C(=O)OCCc4ccccc4)ccc3N(C)C12 (stereo not drawn) [1,2,3,3a,8,8a-Hexahydro-α-oxo-1,3a,8-trimethyl-5-pyrrolo[2,3-b]indole acetic acid, phenylethyl ester]
- IC50 (Brain AChE): 9.1 µM
- % of Animals with Scopolamine Induced Memory Deficit Reversal ([1]; dose 0.1 mg/kg of body weight): 29%
- % of Animals with Scopolamine Induced Memory Deficit Reversal ([1]; dose 0.3 mg/kg of body weight): 36%
- % of Animals with Scopolamine Induced Memory Deficit Reversal ([1]; dose 1.0 mg/kg of body weight): 20%

SMILES: CCCCCOC(=O)C(=O)c1ccc2c(c1)C1(C)CCN(C)C1N2C (stereo not drawn) [1,2,3,3a,8,8a-Hexahydro-α-oxo-1,3a,8-trimethyl-5-pyrrolo[2,3-b]indole acetic acid, n-pentyl ester]
- IC50 (Brain AChE; [2]): 8 µM

SMILES: CN1CCC2(C)c3cc(C(=O)C(=O)OCc4ccccc4)ccc3N(C)C12 (stereo not drawn) [1,2,3,3a,8,8a-Hexahydro-α-oxo-1,3a,8-trimethyl-5-pyrrolo[2,3-b]indole acetic acid, phenylmethyl ester]
- IC50 (Brain AChE; [2]): 4.4 µM

SMILES: CC[C@@H]1C(=O)OC[C@@H]1Cc1cncn1C [Pilocarpine, reference compound]
- % of Animals with Scopolamine Induced Memory Deficit Reversal ([1]; dose 5.0 mg/kg of body weight): 13%

Source: patent publication EP0457318B1, “Alpha-Oxopyrrolo[2,3-b]indole acetic acids, esters, amides and related analogs, a process for their preparation and their use as medicaments” (HOECHST-ROUSSEL PHARMACEUTICALS INCORPORATED, priority 1990, dated 1991)
